From patent US20130059850A1, “AZA-INDOLE DERIVATIVES USEFUL AS MODULATORS OF FAAH” (MERCK SHARP & DOHME CORP., priority 2010, published 2013)

Key:
[1] = target: T1, human FAAH (Fatty Acid Amide Hydrolase) (Homo sapiens, UniProt O00519); assay: FAAH whole cell assay on CHO cells expressing human FAAH (human WC), AAMCA fluorescent substrate; format: cell-based; settings: human FAAH_CHO whole cell
T1 construct: The full length FAAH was subcloned into the mammalian expression vector, pcDEF.neo, using XbaI and EcoRI restriction sites; expressed in transfected cells
T1 sequence (O00519 1-579): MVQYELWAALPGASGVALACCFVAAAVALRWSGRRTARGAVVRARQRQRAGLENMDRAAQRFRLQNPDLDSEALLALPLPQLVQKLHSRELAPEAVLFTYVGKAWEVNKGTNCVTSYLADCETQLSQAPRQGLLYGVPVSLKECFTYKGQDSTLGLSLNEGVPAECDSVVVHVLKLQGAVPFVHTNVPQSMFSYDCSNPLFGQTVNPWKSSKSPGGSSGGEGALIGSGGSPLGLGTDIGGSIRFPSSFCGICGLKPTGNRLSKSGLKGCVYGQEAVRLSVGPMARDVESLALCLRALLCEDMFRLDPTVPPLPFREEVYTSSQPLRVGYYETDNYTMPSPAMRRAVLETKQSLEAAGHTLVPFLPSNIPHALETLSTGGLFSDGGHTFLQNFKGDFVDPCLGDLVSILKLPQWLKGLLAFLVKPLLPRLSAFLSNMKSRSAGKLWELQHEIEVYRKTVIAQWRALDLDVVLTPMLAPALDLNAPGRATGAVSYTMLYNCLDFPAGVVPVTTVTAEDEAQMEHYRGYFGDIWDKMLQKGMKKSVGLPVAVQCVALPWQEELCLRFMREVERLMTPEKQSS
Excerpt: (§1) To assist in assay development stable cell lines for human, murine and rat full length FAAH were developed. Human FAAH cDNA (Accession No: NM_001441.1) was purchased from Origene (Rockville, Md.). The full length FAAH was subcloned into the mammalian expression vector, pcDEF.neo, using XbaI and EcoRI restriction sites and used for stable cell line generation.
Murine (accession number NM_010173) and Rat FAAH (accession number NM_024132) was amplified by reverse transcriptase polymerase chain reaction (RT-PCR) from brain cDNA (BD Biosciences, San Jose, Calif.) using primers 1 and 2 or primers 1 and 3 respectively (see Table). The resulting PCR product was ligated into pCR4 TOPO and DNA sequence confirmed. The full length murine FAAH was subcloned into the mammalian expression vector, pcDEFneo using either EcoRI (murine) or KpnI and EcoRI (rat) restriction sites. Chinese hamster ovary cells (CHO) were transfected following manufacturers protocol (AMAXA). Forty eight hours post transfection, cells were trypsinized and transferred to 96 well plates in Iscove's DMEM media supplemented with 2 mM Glutamine, 10% fetal calf serum, 1 mg/ml geneticin and HT Supplement (0.1 mM sodium hypoxanthine, 0.016 mM thymidine) in order to isolate single clones. Following selection in geneticin, individual clones were selected and FAAH activity was assessed using a whole cell fluorescent anandamide assay, modified from Ramarao et al (2005). Following removal of tissue culture media cells were dislodged following addition of Cellstripper (Mediatech, Inc. Manassas, Va.) and transferred to 96 well black clear bottom assay plate, centrifuged at 1,000 rpm for 3 mins and media removed and replaced with assay buffer (50 mM Tris pH8.0, 1 mM EDTA, 0.1% fatty acid free BSA). The reaction was initiated by addition of fluorescent substrate, AMC Arachidonoyl Amide (Cayman Chemical, Ann Arbor, Mich.) to 1 μM and reaction allowed to proceed for 2 hours at room temperature. Release of fluorescence was monitored in a CytoFluor Multiplate Reader. Cells expressing the highest amount of FAAH activity were selected for study with FAAH inhibitors.
(§2) (American Radiolabeled Chemicals; 1 mCi/ml) with FAAH (Life Sciences (1995), 56, 1999-2005 and Journal of Pharmacology and Experimented Therapeutics (1997), 283, 729-734), Analytical. Biochemistry (2003), 318, 270-5. In addition, routine assays were performed monitoring hydrolysis of arachidonyl-7-amino-4-methylcoumarin amide (AAMCA) by following increase in fluorescence upon release of 7-amino 4-methyl coumarin (λEX=355 nm, μEM=460 nm). Analytical. Biochemistry (2005). 343, 143-51
Assays are performed on either cell lysate or microsome fractions prepared as described or in whole cell format employing either the fluorescent substrate AAMCA (Cayman chemical, Ann Arbor, Mich.,) or ^3H-anandamide ([ETHANOLAMINE-1-3H] American Radiolabeled Chemicals; 1 mCi/ml). The cell lysate or microsome assay is performed in black PerkinElmer OptiPlates-384F by adding FAAH_CHO (whole cell (human whole cell or human WC), cell lysate (human cell lysate or human LY) or microsome) in assay buffer (50 mM Phosphate, pH 8.0, 1 mM EDTA, 200 mM KCl, 0.2% glycerol, 0.1% fatty acid free BSA) to each well, followed by either DMSO or compound and allowed to incubate at 22-25° C. for fifteen minutes. AAMCA substrate was used to achieve a final concentration of 1 μM and reaction allowed to proceed at room temperature for 1-3 hours. Fluorescent release as a measure of FAAH activity was monitored by reading the plate in a Envision plate Reader (Ex: 360/40 nM; Em: 460/40 nM). Whole cell assay is conducted with cells harvested after rinsing tissue culture flasks three times with Ca^++Mg^++ free PBS, incubating for […] in Enzyme free dissociation media and centrifuging for 5 minutes at 1,000 rpm in table top centrifuge. […]

[2] = target: T1, human FAAH (Fatty Acid Amide Hydrolase); assay: FAAH enzyme assay on CHO cell lysate expressing human FAAH (human LY), AAMCA fluorescent substrate; format: biochemical; settings: human FAAH_CHO cell lysate
Excerpt: as §1
CHO cells expressing FAAH were used to prepare either crude cell lysate or microsome fractions. To harvest cells, tissue culture media was decanted, the monolayer washed three times with Ca^++Mg^++ free PBS and cells recovered after […] in enzyme free dissociation media (Millipore Corp, Billerica, Mass.). Cells were collected by centrifuging at 2000 rpm for 15 min. and the cell pellet re-suspended with 50 mM HEPES (pH 7.4) containing 1 mM EDTA and the protease inhibitors aprotinin (1 mg/ml) and leupeptin (100 μM). The suspension was sonicated at 4° C. and the cell lysate recovered after centrifuging at 12,000×g (14,600 rpm, SS34 rotor) for 20 min at 4° C. to form a crude pellet of cell debris, nuclei, peroxisomes, lysosomes, and mitochondria; the supernatant or cell lysate was used for FAAH enzyme assay. In some cases, microsomes fractions enriched in FAAH were prepared by centrifuging the cell lysate further at 27,000 rpm (100,000×g) in SW28 rotor for 50 minutes at 4° C. The pellet containing FAAH-enriched microsomes was re-suspend in 50 mM HEPES, (pH 7.4) 1 mM EDTA, and any remaining DNA sheared by passage of material through a 23 gauge needle and aliquots of enzyme were store at −80° C. prior to use.
as §2
Assays are performed on either cell lysate or microsome fractions prepared as described or in whole cell format employing either the fluorescent substrate AAMCA (Cayman chemical, Ann Arbor, Mich.,) or ^3H-anandamide ([ETHANOLAMINE-1-3H] American Radiolabeled Chemicals; 1 mCi/ml). The cell lysate or microsome assay is performed in black PerkinElmer OptiPlates-384F by adding FAAH_CHO (whole cell (human whole cell or human WC), cell lysate (human cell lysate or human LY) or microsome) in assay buffer (50 mM Phosphate, pH 8.0, 1 mM EDTA, 200 mM KCl, 0.2% glycerol, 0.1% fatty acid free BSA) to each well, followed by either DMSO or compound and allowed to incubate at 22-25° C. for fifteen minutes. AAMCA substrate was used to achieve a final concentration of 1 μM and reaction allowed to proceed at room temperature for 1-3 hours. Fluorescent release as a measure of FAAH activity was monitored by reading the plate in a Envision plate Reader (Ex: 360/40 nM; Em: 460/40 nM). Whole cell assay is conducted with cells harvested after rinsing tissue culture flasks three times with Ca^++Mg^++ free PBS, incubating for […] in Enzyme free dissociation media and centrifuging for 5 minutes at 1,000 rpm in table top centrifuge. Cells are resuspended in assay buffer at desired cell number in (4×10^4 cells/assay in 96-well format; 1×10^4 cells/assay in 384-well format) and assayed as described.

Row | IC50 [1] [nM] | IC50 [2] [nM] | Structure (SMILES)
1 | 101 | 30.4 | O=C(NC1CCCCC1)c1[nH]c2ncccc2c1Sc1ccc(Cl)cc1 [Example C17]
2 | 76.7 | 28.8 | OCCn1cccc2c(Sc3ccc(Cl)cc3)c(-c3ccc4c(c3)OCO4)nc1-2 [Example E12]
3 | 202 | 59 | CC1(C)CC(NCc2[nH]c3ncccc3c2Sc2ccc(Cl)cc2)CC(C)(C)O1 [Example J12]
4 | 119 | 21.7 | N#CC1CC=C(c2[nH]c3ncccc3c2Sc2ccc(Cl)cc2)CC1 (stereo not drawn) [Example B16]
5 | 400 | 132 | Clc1ccc(Sc2c(CNCc3ccccc3)[nH]c3ncccc23)cc1 [Example J6, N-benzyl-1-{3-[(4-chlorophenyl)sulfanyl]-1H-pyrrolo[2,3-b]pyridin-2-yl}methanamine]
6 | 10000 | 5870 | OC(c1ccccc1)c1[nH]c2ncccc2c1Sc1ccc(Cl)cc1 (stereo not drawn) [Example J4, {3-[(4-chlorophenyl)sulfanyl]-1H-pyrrolo[2,3-b]pyridin-2-yl}(phenyl)methanol]
7 | 68.4 | 15.9 | Clc1ccc(Sc2c(C3=CCCCC3)[nH]c3ncccc23)cc1 [Example B40]
8 | 147 | 37.6 | OC(c1ccc(-c2[nH]c3ncccc3c2Sc2ccc(Cl)cn2)cc1)C(F)(F)F (stereo not drawn) [Example A25]
9 | 1110 | 339 | Clc1ccc(Sc2c(-c3ccccn3)[nH]c3ncccc23)cc1 [Example F9]
10 | 48 | 7.64 | O=C(N[C@H]1CC[C@H](O)CC1)c1[nH]c2ncccc2c1Sc1ccc(Cl)cc1 [Example C4, 3-[(4-chlorophenyl)sulfanyl]-N-(trans-4-hydroxycyclohexyl)-1H-pyrrolo[2,3-b]pyridine-2-carboxamide]
11 | 42 | 13.2 | CC(C)(O)c1ccc(-c2[nH]c3ncccc3c2Sc2ccc(Cl)cc2)cc1 [Example A31]
12 | 370 | 110 | CC(=O)Nc1ccc(-c2[nH]c3ncccc3c2Sc2ccc(Cl)cc2)cc1 [Example A20]
13 | 28.9 | 3.35 | C[S+]([O-])c1ccc(-c2[nH]c3ncccc3c2Sc2ccc(Cl)cc2)cn1 (stereo not drawn) [Example A36, 3-[(4-chlorophenyl)sulfanyl]-2-[6-(methylsulfinyl)pyridin-3-yl]-1H-pyrrolo[2,3-b]pyridine]
14 | 1110 | 208 | Cc1noc(C)c1-c1[nH]c2ncccc2c1Sc1ccc(Cl)cc1 [Example B30]
15 | 34.4 | 44.1 | C[S+]([O-])c1ccc(-c2[nH]c3ncccc3c2Sc2ccc(Cl)cn2)cn1 (stereo not drawn) [Example A15]
16 | 8490 | 2030 | Cn1cccc2c(Sc3ccc(Cl)cn3)c([C@H]3CC[C@H](O)CC3)nc1-2 [Example E16]
17 | 1040 | 289 | OCCn1cccc2c(Sc3ccc(Cl)cn3)c(-c3ccc4c(c3)OCO4)nc1-2 [Example E20]
18 | 71.6 | 26.6 | Cn1cccc2c(Sc3ccc(Cl)cn3)c(-c3ccc4c(c3)OCO4)nc1-2 [Example E11]
19 | 7.67 | 0.872 | CSc1ccc(-c2[nH]c3ncccc3c2Sc2ccc(Cl)cc2)cc1 [Example A10]
20 | 370 | 370 | FC(F)(F)c1ccc(/C=C/c2[nH]c3ncccc3c2Sc2ccc(Cl)cc2)cc1 [Example B39]
21 | 69.4 | 12.2 | N#Cc1ccccc1-c1[nH]c2ncccc2c1Sc1ccc(Cl)cc1 [Example F8]
22 | 21.7 | 6.42 | Clc1ccc(Sc2c(-c3ccc(C4CC4)nc3)[nH]c3ncccc23)cc1 [Example B37]
23 | 8.04 | 3.06 | OCC1CC=C(c2[nH]c3ncccc3c2Sc2ccc(Cl)cc2)CC1 (stereo not drawn) [Example B50, (4-{3-[(4-chlorophenyl)sulfanyl]-1H-pyrrolo[2,3-b]pyridin-2-yl}cyclohex-3-en-1-yl)methanol]
24 | 833 | 56.3 | NCc1ccc(-c2[nH]c3ncccc3c2Sc2ccc(Cl)cc2)cc1 [Example A30]
25 | 21.8 | 6 | NS(=O)(=O)c1ccc(-c2[nH]c3ncccc3c2Sc2ccc(Cl)cn2)cc1 [Example A8, 4-{3-[(5-chloropyridin-2-yl)sulfanyl]-1H-pyrrolo[2,3-b]pyridin-2-yl}benzenesulfonamide]
26 | 21.9 | 4.39 | NS(=O)(=O)c1ccc(-c2[nH]c3ncccc3c2Sc2ccc(Cl)cc2)cc1 [Example A7, 4-{3-[(4-chlorophenyl)sulfanyl]-1H-pyrrolo[2,3-b]pyridin-2-yl}benzenesulfonamide]
27 | 15.1 | 7.84 | O=C1NCc2cc(-c3[nH]c4ncccc4c3Sc3ccc(Cl)cc3)ccc21 [Example A32]
